{
  "source": "ChEMBL document CHEMBL1201862",
  "about": "“PubChem BioAssay data set” (2004)",
  "key": {"[1]": {"target": "T1, Histone-lysine N-methyltransferase NSD2 (Homo sapiens, UniProt O96028)", "T1 sequence (O96028 whole entry)": "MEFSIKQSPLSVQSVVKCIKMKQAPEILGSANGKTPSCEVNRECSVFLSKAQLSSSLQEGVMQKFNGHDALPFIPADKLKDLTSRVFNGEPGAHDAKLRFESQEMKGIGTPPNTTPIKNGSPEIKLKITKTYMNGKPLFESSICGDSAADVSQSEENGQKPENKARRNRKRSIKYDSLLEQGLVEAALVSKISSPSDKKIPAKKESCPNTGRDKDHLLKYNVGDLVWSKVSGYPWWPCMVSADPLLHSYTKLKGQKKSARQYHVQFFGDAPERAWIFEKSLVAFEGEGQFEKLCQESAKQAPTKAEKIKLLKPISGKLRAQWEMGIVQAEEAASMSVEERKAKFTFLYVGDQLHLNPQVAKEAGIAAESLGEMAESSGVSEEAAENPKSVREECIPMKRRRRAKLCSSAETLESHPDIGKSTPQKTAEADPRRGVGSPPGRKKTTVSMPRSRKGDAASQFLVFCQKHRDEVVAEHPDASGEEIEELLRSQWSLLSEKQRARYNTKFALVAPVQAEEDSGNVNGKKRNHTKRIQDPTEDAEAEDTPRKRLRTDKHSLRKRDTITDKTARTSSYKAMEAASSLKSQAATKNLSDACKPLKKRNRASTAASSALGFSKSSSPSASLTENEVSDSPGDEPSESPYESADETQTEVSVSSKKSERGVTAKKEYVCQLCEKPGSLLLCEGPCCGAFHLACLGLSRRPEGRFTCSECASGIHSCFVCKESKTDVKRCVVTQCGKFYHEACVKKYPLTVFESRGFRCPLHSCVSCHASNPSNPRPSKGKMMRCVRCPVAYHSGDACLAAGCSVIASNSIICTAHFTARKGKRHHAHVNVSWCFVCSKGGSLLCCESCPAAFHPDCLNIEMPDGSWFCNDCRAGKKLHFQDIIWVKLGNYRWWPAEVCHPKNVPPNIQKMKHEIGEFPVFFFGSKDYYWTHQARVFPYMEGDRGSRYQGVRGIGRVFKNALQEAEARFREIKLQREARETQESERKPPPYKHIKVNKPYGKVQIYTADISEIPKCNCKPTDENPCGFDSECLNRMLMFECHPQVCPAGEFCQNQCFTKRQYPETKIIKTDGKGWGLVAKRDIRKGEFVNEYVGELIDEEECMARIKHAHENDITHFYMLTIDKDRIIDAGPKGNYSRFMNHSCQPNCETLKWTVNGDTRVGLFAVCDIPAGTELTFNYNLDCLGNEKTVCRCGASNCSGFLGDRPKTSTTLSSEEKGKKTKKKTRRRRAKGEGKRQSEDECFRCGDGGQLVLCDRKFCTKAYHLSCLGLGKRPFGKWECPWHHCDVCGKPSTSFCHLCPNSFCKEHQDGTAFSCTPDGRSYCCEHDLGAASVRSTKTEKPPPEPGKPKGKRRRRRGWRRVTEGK", "type": "biochemical"}, "Leucine aminopeptidase": {"target": "T2, Leucine aminopeptidase (Plasmodium falciparum 3D7, UniProt Q8IL11)", "T2 sequence (Q8IL11 whole entry)": "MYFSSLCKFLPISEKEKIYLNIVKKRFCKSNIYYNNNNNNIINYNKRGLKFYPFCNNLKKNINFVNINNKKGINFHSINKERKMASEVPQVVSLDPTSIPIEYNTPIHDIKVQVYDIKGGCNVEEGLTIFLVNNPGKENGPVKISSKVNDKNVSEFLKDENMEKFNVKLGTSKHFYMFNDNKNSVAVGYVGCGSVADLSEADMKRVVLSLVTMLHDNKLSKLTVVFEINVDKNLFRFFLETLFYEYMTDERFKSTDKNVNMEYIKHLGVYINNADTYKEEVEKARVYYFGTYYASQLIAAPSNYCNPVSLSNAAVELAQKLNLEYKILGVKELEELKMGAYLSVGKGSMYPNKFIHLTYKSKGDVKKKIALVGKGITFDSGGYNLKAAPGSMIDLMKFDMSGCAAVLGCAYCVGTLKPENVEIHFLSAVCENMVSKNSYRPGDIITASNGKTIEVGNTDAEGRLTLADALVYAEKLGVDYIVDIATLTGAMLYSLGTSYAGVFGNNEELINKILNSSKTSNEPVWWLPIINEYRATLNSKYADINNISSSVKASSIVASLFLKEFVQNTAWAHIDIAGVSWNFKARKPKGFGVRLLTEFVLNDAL", "assay": "P. falciparum M17LAP inhibitors, primary screen, biochemical, fluorogenic H-Leu-NHMec substrate, 1536-well (AID 1619)", "type": "functional"}, "[2]": {"assay": "P. falciparum ATP4 D1247Y mutant growth inhibitors, dose response, NITD609-resistant line, SYBR Green, dry powder (AID 1159571);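 note: parasites synchronized at ring stage by sorbitol before testing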", "type": "functional, cell-based"}, "[3]": {"assay": "HepG2 cell cytotoxicity, dose response, cytotoxicity control, plate reader, dry powder samples (AID 1159569);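 note: inhibitor potency with signal falling toward the positive control level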", "type": "functional, cell-based"}, "[4]": {"assay": "P. falciparum Dd2 growth inhibitors, dose response, SYBR Green, cherry-picked samples (AID 1159567)", "type": "functional, cell-based"}, "[5]": {"assay": "P. falciparum 3D7-ScDHODH growth inhibitors, dose response, SYBR Green, dry powder samples (AID 1159570);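 note: parasite growth measured after 72 hours of compound exposure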", "type": "functional, cell-based"}, "[6]": {"assay": "P. falciparum Dd2 growth inhibitors, dose response, SYBR Green, dry powder samples (AID 1159566);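 note: potency for growth inhibition with lower SYBR green DNA signal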", "type": "functional, cell-based"}, "[7]": {"assay": "microbe, parasite or virus in culture", "type": "functional", "settings": "Mycobacterium tuberculosis"}, "[8]": {"target": "Induced myeloid leukemia cell differentiation protein Mcl-1 (Homo sapiens, UniProt Q07820)", "sequence (Q07820 whole entry)": "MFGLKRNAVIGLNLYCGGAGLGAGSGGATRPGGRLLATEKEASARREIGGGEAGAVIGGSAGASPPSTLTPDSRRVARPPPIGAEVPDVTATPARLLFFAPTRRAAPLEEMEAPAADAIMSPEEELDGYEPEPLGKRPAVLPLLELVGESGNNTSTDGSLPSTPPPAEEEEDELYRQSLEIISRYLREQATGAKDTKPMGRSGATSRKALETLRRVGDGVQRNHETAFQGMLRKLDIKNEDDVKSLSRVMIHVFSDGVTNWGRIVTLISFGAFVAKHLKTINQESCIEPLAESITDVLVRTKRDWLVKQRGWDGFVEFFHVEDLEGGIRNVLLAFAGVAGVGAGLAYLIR", "type": "functional"}, "cells": {"assay": "cells", "type": "functional"}},
  "note": "Activity calls are given as the source filed them.",
  "data": [
    {"smiles": "CCN1CCC(CNCc2cn(-c3ccc(OC)cc3)nc2-c2ccccc2Cl)C1", "note": "(stereo not given)", "values": [
      {"measurement": "AC50", "setting": "[1]", "value": "> 20 µM (inactive)"}
    ]},
    {"smiles": "O=C(CN1C(=O)C2CC=CCC2C1=O)NCC1COc2ccccc2O1", "note": "(stereo not given)", "values": [
      {"measurement": "IC50", "setting": "Leucine aminopeptidase", "value": "8.66 µM (active)"}
    ]},
    {"smiles": "C[C@@H]1CN([C@@H](C)CO)C(=O)c2c(c3ccccc3n2C)-c2ccccc2CO[C@@H]1CN(C)C(=O)c1cc(Cl)cc(Cl)c1", "values": [
      {"measurement": "AC50", "setting": "[2]", "value": "1.5 µM (active)"},
      {"measurement": "AC50", "setting": "[3]", "value": "22.4 µM (active)"},
      {"measurement": "AC50", "setting": "[4]", "value": "2.11 µM (active)"},
      {"measurement": "AC50", "setting": "[5]", "value": "2.02 µM (active)"},
      {"measurement": "AC50", "setting": "[6]", "value": "1.88 µM (active)"}
    ]},
    {"smiles": "CCN(c1cccc(C)c1)S(=O)(=O)c1ccc2[nH]c(=O)c(=O)[nH]c2c1", "values": [
      {"measurement": "IC50", "setting": "Leucine aminopeptidase", "value": "1.62 µM (active)"}
    ]},
    {"smiles": "O=C1Oc2ccccc2C(=O)/C1=C/c1c[nH]c2ccccc12", "values": [
      {"measurement": "CC50", "setting": "[7]", "value": "30.9 µM (active)"},
      {"measurement": "IC50", "setting": "[8]", "value": "5.56 µM (active)"}
    ]},
    {"smiles": "CCCN(CCC)CCCNC(=O)c1cn(CC)c2ccc(S(=O)(=O)N3CCc4ccccc4C3)cc2c1=O", "values": [
      {"measurement": "AC50", "setting": "[1]", "value": "> 20 µM (inactive)"}
    ]},
    {"smiles": "O=C(Nc1ccc(-c2ccccc2)cc1)[C@H]1[C@H](CO)[C@H]2Cn3c(cccc3=O)[C@@H]1N2Cc1ccccc1", "values": [
      {"measurement": "AC50", "setting": "[2]", "value": "0.921 µM (active)"},
      {"measurement": "AC50", "setting": "[3]", "value": "48.4 µM (active)"},
      {"measurement": "AC50", "setting": "[4]", "value": "1.44 µM (active)"},
      {"measurement": "AC50", "setting": "[5]", "value": "1.24 µM (active)"},
      {"measurement": "AC50", "setting": "[6]", "value": "1.03 µM (active)"}
    ]},
    {"smiles": "C[C@@H]1CN([C@H](C)CO)C(=O)c2ccccc2-c2ccccc2CO[C@H]1CN(C)C(=O)Nc1cccc(C(F)(F)F)c1", "values": [
      {"measurement": "AC50", "setting": "[2]", "value": "3.23 µM (active)"},
      {"measurement": "AC50", "setting": "[3]", "value": "86.3 µM (active)"},
      {"measurement": "AC50", "setting": "[4]", "value": "1.45 µM (active)"},
      {"measurement": "AC50", "setting": "[5]", "value": "1.19 µM (active)"},
      {"measurement": "AC50", "setting": "[6]", "value": "1.03 µM (active)"}
    ]},
    {"smiles": "C=CCc1c(C)nc(SC)nc1Nc1ccc(C(C)=O)cc1", "values": [
      {"measurement": "CC50", "setting": "[7]", "value": "> 40 µM (active)"}
    ]},
    {"smiles": "CCCCN1C(=O)NC(=O)/C(=C/c2ccc[nH]2)C1=O", "values": [
      {"measurement": "CC50", "setting": "[7]", "value": "> 40 µM (active)"},
      {"measurement": "IC50", "setting": "cells", "value": "1.46 µM (active)"}
    ]},
    {"smiles": "Cc1cc(O)nc(SCC(=O)Nc2cccc3ccccc23)c1C#N", "values": [
      {"measurement": "IC50", "setting": "Leucine aminopeptidase", "value": "2.2 µM (active)"}
    ]},
    {"smiles": "COc1ccc2c3c(n(C)c2c1)[C@@H](CO)NCC31CCN(Cc2ccc(-c3ccccn3)cc2)CC1", "values": [
      {"measurement": "AC50", "setting": "[2]", "value": "0.56 µM (active)"},
      {"measurement": "AC50", "setting": "[3]", "value": "19.4 µM (active)"},
      {"measurement": "AC50", "setting": "[4]", "value": "0.696 µM (active)"},
      {"measurement": "AC50", "setting": "[5]", "value": "0.447 µM (active)"},
      {"measurement": "AC50", "setting": "[6]", "value": "0.44 µM (active)"}
    ]},
    {"smiles": "C[C@@H]1CN([C@@H](C)CO)C(=O)c2c(c3ccccc3n2C)-c2ccccc2CO[C@@H]1CN(C)Cc1ccc(Oc2ccccc2)cc1", "values": [
      {"measurement": "AC50", "setting": "[2]", "value": "0.906 µM (active)"},
      {"measurement": "AC50", "setting": "[3]", "value": "22.8 µM (active)"},
      {"measurement": "AC50", "setting": "[4]", "value": "1.3 µM (active)"},
      {"measurement": "AC50", "setting": "[5]", "value": "3.44 µM (active)"},
      {"measurement": "AC50", "setting": "[6]", "value": "0.59 µM (active)"}
    ]}
  ]
}
